Data: US6461866B1, “In vitro photodynamic therapy using non laser light” (Photo Therapeutics Limited, priority 1992, dated 2002)

System: Chinese hamster ovary (CHO) cells
Assay: In vitro PDT: survival of CHO cells incubated with HpD after irradiation
Type: cell-based
Procedure: In vitro work carried out using Chinese hamster ovary (CHO) cells incubated with […] HpD for 24 hours. Irradiation was centered on 630±12 nm for three light sources, namely a high intensity continuous wave (CW) lamp (non-laser light source in accordance with the present invention using 300 W Xenon lamp), secondly a continuous wave 20 W argon ion pumped dye laser and pulsed 10 W copper vapour pumped dye laser, all with fibre delivery. Light doses ranged from 0 to 2.5 J/cm^2 with light fluences ranging from 20 to 200 mW/cm^2. A light only control was taken at 275 mW/cm^2 for energy doses of 0 to 100 J/cm^2. Following irradiation, cells were plated out, stained and counted for survival.
FIGS. 2a, 2b, 2c show photosensitiser (HpD) absorption spectrum, cell kill efficacy spectrum and overlapping HpD/lamp spectra. PBS refers to phosphate buffered saline; S.F. means survival fraction.
FIGS. 3a, 3b show cell survival curves obtained at 20 & 50 mW/cm^2 respectively with highest kill efficiency achieved by the argon ion laser, followed by the copper vapour laser. The lamp kill efficiency of the light source in accordance with the present invention, though similar to the lasers (approx 70%) would be increased by reducing its emission bandwidth from 30 nm.

**Q.** How did the “lamp kill efficiency (cell survival curves)” value (CHO cells, 10 pg/ml HpD for 24 hours, 300 W Xenon lamp at 630±12 nm, 20 & 50 mW/cm^2, similar to the lasers) turn out when haematoporhyrin derivative [HpD] was run?
**A.** Its value is “approx 70%”.

**Q.** What about the “photo-inactivation of cancerous CHO cells in vitro” value (HpD with impinging visible light at 630±12 nm from the non-laser light source) of the same substance?
**A.** Its value is “proven photo-inactivation”.
